Assay results from patent US6004933A, “Cysteine protease inhibitors” (Cortech Inc., priority 1998, dated 1999).

Tests used:
[1] = molecular target: T1, papain (Carica papaya, UniProt P00784); test: Papain inhibition, fluorometric assay with Cbz-Phe-Arg-NHMec; format: biochemical; conditions: IC50 at substrate << Km taken as Ki; pH 6.8
T1 construct: purchased Sigma (St. Louis, Mo.)
T1 sequence (P00784 134-345): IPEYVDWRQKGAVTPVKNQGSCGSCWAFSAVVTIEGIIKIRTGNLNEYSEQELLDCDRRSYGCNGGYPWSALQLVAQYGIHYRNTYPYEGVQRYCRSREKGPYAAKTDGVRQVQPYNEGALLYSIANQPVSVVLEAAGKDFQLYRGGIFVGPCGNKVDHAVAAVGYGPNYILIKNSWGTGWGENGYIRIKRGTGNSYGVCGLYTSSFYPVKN
From the text: (§1) The enzyme cathepsin B (E.C. 3.4.22.01) was obtained from Calbiochem (San Diego, Calif.); cathepsin L (E.C. 3.4.22.15) from Athens Research and Technology Inc. (Athens,Ga.); and papain (E.C. 3.4.22.02) from Sigma (St. Louis, Mo.).
(§2) Cbz-Phe-Arg-NHMec (--NHMec: 7-(4-methyl)coumarylamide) was obtained from BachemCalifornia, Inc. (Torrance, Calif.). All other reagents were obtained from Sigma.
(§3) The enzymes used in enzyme assays with methylcoumarylamides were activated as described elsewhere (Barret, et al., Methods Enzymol. 80:535-561 (1981); Bromme, et al., Biochem. J, 264: 475-481 (1989). Cathepsin L was assayed in 0.34 M sodium acetate buffer, pH 5.5, containing 0.1% (v/v) Brij 35, 2.5 mM dithiothreitol (DTT) and 5 mM Na2 -EDTA. Cathepsin B was assayed under the same conditions, except that the buffer was adjusted to pH 6. Papain was assayed in 50 mM sodium phosphate buffer, pH 6.8, containing 0.2 M sodium chloride, 2 mM DTT, 1 mM Na2 -EDTA and 0.025% Brij 35 (v/v).
(§4) Initial velocities of enzymatic reactions were measured spectrofluorometrically (λex =370 nm, λem 460 nm) with a Quanta Master QM1 (Photon Technologies International, South Brunswick, N.J.). Stock solutions of the enzymes were diluted into the buffer, equilibrated at room temperature, and preincubated without or with increasing concentrations of inhibitors. The reactions were started by addition of substrate. A total of 4 to 8 inhibitor concentrations were used to determine IC50 values. In all cases the substrate concentrations were much smaller than the Km value, and the IC50 values measured approximated the Ki directly (Cheng, et al., Biochemical Pharmacology, 22:3099-3108 (1973)).

[2] = molecular target: T2, cathepsin B (Homo sapiens, UniProt P07858); test: Cathepsin B inhibition, fluorometric assay with Cbz-Phe-Arg-NHMec; format: biochemical; conditions: human enzyme; IC50 at substrate << Km taken as Ki; pH 6
T2 construct: purchased Calbiochem (San Diego, Calif.)
From the text: as §1, §2, §3, §4

[3] = molecular target: T3, cathepsin L (Homo sapiens, UniProt P07711); test: Cathepsin L inhibition, fluorometric assay with Cbz-Phe-Arg-NHMec; format: biochemical; conditions: human enzyme; IC50 at substrate << Km taken as Ki; pH 5.5
T3 construct: purchased Athens Research and Technology Inc. (Athens,Ga.)
T3 sequence (P07711 114-333): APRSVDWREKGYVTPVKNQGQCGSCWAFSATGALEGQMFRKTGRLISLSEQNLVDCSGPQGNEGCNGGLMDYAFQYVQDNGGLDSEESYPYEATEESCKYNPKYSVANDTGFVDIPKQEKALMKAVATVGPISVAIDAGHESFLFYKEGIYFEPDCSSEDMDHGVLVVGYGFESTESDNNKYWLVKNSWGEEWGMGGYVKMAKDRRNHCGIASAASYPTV
From the text: as §1, §2, §3, §4

[4] = system: picornain 2A protease; test: Inhibitory activity against picornain 2A protease; format: biochemical; conditions: at 100 μM
[5] = system: gingipain R (RGP); test: Gingipain assay, BAPNA cleavage at 405 nm; format: biochemical, human; conditions: 2 mM BAPNA, cell marked (IC50) in the Ki [nM] table
Method: All assays were carried out in a 96 well microtiter plate reader and cleavage of BAPNA (Nα-benzoyl-DL-arginine-p-nitroanilide hydrochloride) was detected at 405 nm.
All assays were performed as follows: 180 μl assay buffer (50 mM Tris, […], at pH 7.6) was mixed with 10 μl gingipain R (RGP). The mixture was incubated for 5 min. at room temperature to reduce and activate RGP. 10 μl of each inhibitor were added at various concentrations. These mixtures were incubated for 10 min. at room temperature to allow the inhibitors to complex with RGP. 50 μl of 10 mM BAPNA substrate was added. A two minute assay was performed with a final volume of 250 μl, and a final BAPNA concentration of 2 mM.
For this reason, two minute assays were performed whereby the Vmax in mOD/min change in absorbance at 405 nm was used as the initial velocity reading. In order to titrate RGP against leupeptin and to determine % activity, these velocity readings were transformed on a percent scale where the 100% control contained no inhibitor. The initial velocity values were also entered into Graphpad Prism regression program along with the various inhibitor concentrations to obtain the IC50 values. All data represents the minimum of duplicates, and at times triplicate sets.

[6] = molecular target: granzyme B (Homo sapiens, UniProt P10144); test: Granzyme B inhibition, photometric, Succ-AAPD-pNA; format: biochemical; conditions: 20 μM Succ-AAPD-pNA, 1 mM DTT
Chain of granzyme B (P10144 21-247, species assumed): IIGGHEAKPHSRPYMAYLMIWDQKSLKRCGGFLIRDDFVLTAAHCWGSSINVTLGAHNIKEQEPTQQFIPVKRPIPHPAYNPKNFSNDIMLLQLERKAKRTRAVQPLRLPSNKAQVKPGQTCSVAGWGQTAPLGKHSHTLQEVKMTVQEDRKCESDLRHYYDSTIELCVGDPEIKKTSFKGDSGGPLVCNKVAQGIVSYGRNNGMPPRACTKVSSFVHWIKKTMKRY
Method: (§5) Inhibition constants were measured photometrically for YAMA (caspase 3), Lap3 (caspase 7), FLICE (caspase 8), Mch2 (caspase 6) and granzyme B. The buffer used for all enzymes consisted of 50 mM Hepes, 100 mM sodium chloride, 10% (v/v) sucrose, 0.1% (v/v) CHAPS and 10 mM dithiothreitol (DTT). In the case of granzyme B, only 1 mM DTT was used.
(§6) Enzymes were incubated at 37° C. for 10 minutes in 100 μL well plates and synthetic substrate and inhibitor were added simultaneously. Final substrate concentration was 20 μM in all cases. The synthetic substrate Ac-DEVD-pNA was used for all caspases and Succ-AAPD-pNA was used for granzyme B. The appearance of product was monitored over 10 minutes at 410 nm using a Spectromax 340 and IC50 curves were calculated from the initial slopes at varying inhibitor concentrations and inhibition constants were calculated.

[7] = molecular target: T4, YAMA (CPP32, Caspase 3) (Homo sapiens, UniProt P42574); test: Caspase inhibition, photometric, Ac-DEVD-pNA; format: biochemical; conditions: 20 μM Ac-DEVD-pNA, 37° C.
T4 sequence (P42574 29-175 limits assumed): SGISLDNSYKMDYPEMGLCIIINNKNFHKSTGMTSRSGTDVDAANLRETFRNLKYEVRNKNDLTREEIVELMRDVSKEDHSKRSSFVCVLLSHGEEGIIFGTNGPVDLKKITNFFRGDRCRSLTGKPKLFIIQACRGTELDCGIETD
T4 sequence (P42574 176-277 limits assumed): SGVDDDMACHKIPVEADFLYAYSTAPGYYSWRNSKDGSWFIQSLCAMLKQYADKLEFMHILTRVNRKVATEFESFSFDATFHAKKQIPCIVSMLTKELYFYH
Method: as §5, §6

[8] = molecular target: T5, Lap3 (Mch3, Caspase 7) (Homo sapiens, UniProt P55210); test: Caspase inhibition, photometric, Ac-DEVD-pNA; format: biochemical; conditions: 20 μM Ac-DEVD-pNA, 37° C.
T5 sequence (P55210 24-198 limits assumed): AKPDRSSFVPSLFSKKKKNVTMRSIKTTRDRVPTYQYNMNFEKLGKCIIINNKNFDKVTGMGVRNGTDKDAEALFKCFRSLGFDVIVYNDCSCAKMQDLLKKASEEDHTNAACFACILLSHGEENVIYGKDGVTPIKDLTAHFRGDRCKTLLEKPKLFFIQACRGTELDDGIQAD
T5 sequence (P55210 207-303 limits assumed): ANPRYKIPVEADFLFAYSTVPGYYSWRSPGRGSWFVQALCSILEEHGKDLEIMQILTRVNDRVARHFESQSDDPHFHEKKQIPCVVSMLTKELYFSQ
Method: as §5, §6

[9] = molecular target: T6, Mch2 (Caspase 6) (Homo sapiens, UniProt P55212); test: Caspase inhibition, photometric, Ac-DEVD-pNA; format: biochemical; conditions: 20 μM Ac-DEVD-pNA, 37° C.
T6 sequence (P55212 24-179 limits assumed): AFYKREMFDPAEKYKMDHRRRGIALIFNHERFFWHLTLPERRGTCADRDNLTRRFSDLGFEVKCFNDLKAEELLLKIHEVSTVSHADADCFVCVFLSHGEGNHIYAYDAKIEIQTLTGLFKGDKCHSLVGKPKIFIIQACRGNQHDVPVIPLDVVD
T6 sequence (P55212 194-293 limits assumed): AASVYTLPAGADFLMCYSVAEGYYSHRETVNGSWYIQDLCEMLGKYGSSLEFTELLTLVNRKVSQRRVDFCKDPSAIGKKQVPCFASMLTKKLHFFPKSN
Method: as §5, §6

[10] = molecular target: FLICE (Mch5, Caspase 8) (Homo sapiens, UniProt Q14790); test: Caspase inhibition, photometric, Ac-DEVD-pNA; format: biochemical; conditions: 20 μM Ac-DEVD-pNA, 37° C.; read-out: Ki, FLICE (Mch5, Caspase 8)
Chain of FLICE (Mch5, Caspase 8) (Q14790 217-374 limits assumed, species assumed): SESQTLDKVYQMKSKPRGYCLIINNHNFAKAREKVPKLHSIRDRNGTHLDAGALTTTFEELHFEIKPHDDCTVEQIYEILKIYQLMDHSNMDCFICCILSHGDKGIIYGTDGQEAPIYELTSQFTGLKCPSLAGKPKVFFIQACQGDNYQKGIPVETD
Chain of FLICE (Mch5, Caspase 8) (Q14790 385-479 limits assumed, species assumed): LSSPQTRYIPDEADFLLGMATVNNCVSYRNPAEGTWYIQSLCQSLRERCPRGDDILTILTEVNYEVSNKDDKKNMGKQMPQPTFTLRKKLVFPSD
Method: as §5, §6

[11] = molecular target: T7, ICE (Caspase 1) (Homo sapiens, UniProt P29466); test: THP-1 assay: IL-1β release after LPS stimulation (assay for ICE inhibition); format: cell-based
T7 construct: endogenous in cells; host or cells: THP-1
T7 sequence (P29466 120-297 limits assumed): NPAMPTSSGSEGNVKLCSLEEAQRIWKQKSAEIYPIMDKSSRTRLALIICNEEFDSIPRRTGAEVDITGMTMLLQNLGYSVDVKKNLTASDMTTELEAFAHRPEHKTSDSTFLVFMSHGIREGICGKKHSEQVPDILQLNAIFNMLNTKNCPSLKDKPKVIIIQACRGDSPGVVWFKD
T7 sequence (P29466 317-404 limits assumed): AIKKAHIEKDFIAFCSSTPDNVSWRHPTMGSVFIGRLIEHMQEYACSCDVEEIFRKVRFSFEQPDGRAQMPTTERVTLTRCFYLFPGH
From the text: To examine the ability of the caspase family inhibitors, CQ-0010 and CQ-0011, to inhibit human IL-1β production, two different assays were employed. In the first, the human monocytic cell line, THP-1, was stimulated with E. coli lipopolysaccharide (LPS serotype 0127-88; Sigma Chemical Co., St. Louis, Mo.) in the presence and absence of the inhibitors. This cell line synthesizes and secretes IL-1β and TNFα as well as other cytokines upon LPS stimulation. The second assay used freshly-isolated human whole blood similarly stimulated with LPS.
Two×10^6 THP-1 cells were added to 24 well plates in 1 ml RPMI supplemented with 1% FCS, glutamine and 5×10^-5 M mercaptoethanol. Two-fold serial dilutions of the inhibitors, CQ-0010, CQ-0011 and the commmercially available Ac-YVAD-CHO (Biomol Research Laboratories Inc., Plymouth Meeting, Pa.), were preincubated with the cells for 15 min at 37° C. LPS was then added to a final concentration of 1 ug/ml and the plates incubated for 4 hr at 37° C. All incubations were carried out in a humidified incubator with 5% CO2 in air.
Supernatants were harvested after 4 hr and assayed by ELISA for the presence of TNFα and IL-1β using commercially available kits (PerSeptive Biosystems, Framingham, Mass. and R&D Systems, Minneapolis, Minn., respectively).

| Compound | Ki [1] [µM] | Ki [2] [µM] | Ki [3] [µM] | inhibition of picornain 2A protease [4] [%] | also measured |
| --- | --- | --- | --- | --- | --- |
| CC(=O)N[C@@H](CC(C)C)C(=O)N[C@@H](CC(C)C)C(=O)NC(C)C(=O)c1noc(C)n1 (stereo partly drawn) [CQ-0004, Acetyl-L-leucyl-N-[1-[3-[5-methyl]-1,2,4-oxadiazolyl]carbonyl]-ethyl-L-leucyl amide] | 25.6 ± 5.34 | 27.2 ± 1.9 | 0.061 ± 0.014 | – | – |
| Carboxysuccinyl-L-valyl-N-[1-[3-[5-(3-trifluoromethylbenzyl)- 1,2,4-oxadiazolyl]carbonyl]-2-benzylidone]-L-prolinamide [CE-2061] | – | – | – | 100 | – |
| CC(=O)N[C@@H](CC(C)C)C(=O)N[C@@H](CC(C)C)C(=O)NC(CCCN=C(N)N)C(=O)c1noc(C)n1 (stereo partly drawn) [CQ-0008, Acetyl-L-leucyl-N-[1-[3-[5-methyl-1,2,4-oxadiazolyl]carbonyl]-4-(guanidino)-butyl]-L-leucyl amide] | 8.59 ± 1.86 | 1.24 ± 0.182 | 0.00713 ± 0.00032 | – | – |
| Cc1cccc(Cc2nnc(C(=O)[C@@H](NC(=O)[C@H](Cc3ccccc3)NC(=O)[C@@H](CC(=O)O)CC(C)C)C(C)C)o2)c1 [CM-0019B, [[2-[5-(3-methylbenzyl)-1,3,4-oxadiazolyl]carbonyl]-2-(S)-methylpropyl]-L-phenylalanamide-(3R)-(isobutyl)succinic acid] | 0.085 | 3 | ~0.1 | – | – |
| CC(C)[C@H](NC(=O)CCC(=O)OC(C)(C)C)C(=O)N1CCC[C@H]1C(=O)NC(Cc1ccccc1)C(=O)c1noc(Cc2cccc(C(F)(F)F)c2)n1 (stereo partly drawn) [CE-2060, (t-butoxysuccinyl)-L-valyl-N-[1-[3-[5-(3-trifluoromethylbenzyl)-1,2,4-oxadiazolyl]carbonyl]-2-benzylidone]-L-prolinamide] | – | – | – | 100 | – |
| CC(=O)N[C@@H](CC(C)C)C(=O)N[C@@H](CC(C)C)C(=O)NC(CCCN=C(N)N)C(=O)c1nnc(-c2ccccc2)o1 (stereo partly drawn) [CQ-0002] | 1.2 | 0.324 ± 0.046 | 0.006 ± 0.00098 | – | IC50 [5]: 28 nM |
| CC(=O)N[C@@H](CC(=O)O)C(=O)N[C@H](C(=O)N[C@@H](CCC(=O)O)C(=O)NC(CC(=O)O)C(=O)c1nnc(-c2ccccc2)o1)C(C)C (stereo partly drawn) [CQ-0011, Acetyl-L-Aspartyl-Valyl-N-[1-[2-[(5-phenyl)-1,3,4-oxadiazolyl]carbonyl]-2-(carboxy)-ethyl]-L-glutamyl amide] | – | – | – | – | Ki, Granzyme [6]: Not Active; Ki [7]: ≤ 0.1 µM; Ki [8]: ≤ 0.03 µM; Ki [9]: 6.7 µM; Ki [10]: ≤ 0.03 µM; IC50 ([11]; LPS 1 ug/ml, 4 hr, ELISA, read-out: IC50 of reduction of IL1β release from THP1 cell line): 3 µM; potency in inhibiting IL1β production relative to CQ-0010 (fold less) ([11]; THP-1 cells (FIG. 1; Table 4)): approximately 10 fold |
| CC(=O)N[C@@H](CC(C)C)C(=O)N[C@@H](CC(C)C)C(=O)N[C@H](C=O)CCCNC(=N)N [Leupeptin, reference compound] | 0.001 ± 6e-05 | 0.0061 ± 0.0012 | 0.00062 ± 0.0001 | – | IC50 [5]: 20.8 nM |
| Cc1cccc(Cc2nnc(C(=O)C(NC(=O)[C@@H]3CCCN3C(=O)[C@@H](NC(=O)OCc3ccccc3)C(C)C)C(C)C)o2)c1 (stereo partly drawn) [CE-2072, (Benzyloxycarbonyl)-L-valyl-N-[1-(2-[5-(3-methylbenzyl)-1,3,4-oxadiazolyl]carbonyl)-2-(S)-methylpropyl]-L-prolinamide] | – | – | – | 100 | – |
